In one data set the test system is HCT cells. The data set is described as follows: Detection of peptide-treated hyper adherent cells (MTT after trypsin-EDTA). Type of data set: cell-based, human. The conditions noted are these: 500 μM peptide, 24 hours. On the procedure:
Viable SiHa cells (1×10^4)/well were distributed on a 96-well culture plate and incubated for 4 hours at 37° C. in a humidified chamber with 5% CO2. Fresh medium containing different peptide concentrations of RB9 (SEQ ID NO: 8) and RB10 (SEQ ID NO: 9) ranging from 0 to 1 mM (i.e., 0, 0.25, 0.5 and 1 mM) was added to the wells and incubated for 24 hours. The medium was then aspirated; cells were detached with 30 μl/well of trypsin-EDTA for five minutes at 37° C. and gently washed with PBS. Hyper-adherent cells were incubated for 4 hours with 0.5 mg/mL of MTT [3-(4,5-dimethylthiazol-2-yl)-2,5-diphenyltetrazolium bromide] in fresh medium and formazan crystals were solubilized adding 1 volume of 10% SDS solution overnight. Intensity was measured using a plate reader at 570 nm.
Viable HCT cells (1×10^4)/well were distributed on a 96-well culture plate and incubated for 4 hours, following the same protocol of Example 5.

The test system of another data set is OVCAR-3 cells. Kind of data set: Effect on ovarian carcinoma cells (trypsin-EDTA detachment, Trypan blue or MTT). The conditions noted are these: for cytotoxicity / activity against OVCAR-3 cells: 0 to 1 mM, 24 hours, Trypan blue / MTT; for hyper-adherent effect (detachment with trypsin/EDTA): up to 1 mM peptide. The class given is cell-based, human. How it is done: Viable OVCAR-3 cells (1×10^4)/well were distributed on a 96-well culture plate and incubated for […] with different concentrations of RB9 (SEQ ID NO: 8) ranging from 0 to 1 mM for 24 hours. Cells were detached with 30 μl/well of trypsin-EDTA for five minutes at 37° C. and counted in a Neubauer chamber with Trypan blue or estimated by the colorimetric MTT assay.

For data set [1], the system named is B16F10-Nex2 melanoma cells. The data set is described as follows: In vivo protection against lung colonization (metastatic melanoma model). More on the design: species or system C57B1/6 mice. As to conditions: 250 μg i.p. on days 1, 3, 5, 7, 9, 11; lungs after 22 days. On the procedure:
Details of the in vitro tumor cell growth, cytotoxicity tests, determination of viable cells and in vivo protection experiments with B16F10 cells in a mouse metastatic model are described in Polonelli et al. (PLoS One. 3(6):e2371, 2008) and Dobroff et al. (Translat. Onc., 3: 204-217, 2010).
Peptides RB9 and RB10 along with the apoptotic peptide A4H3, a true microantibody of cytotoxic anti-melanoma mAb (A4) (Dobroff et al., Translat. Onc., 3: 204-217, 2010), were tested for their protective effects against lung colonization by B16F10-Nex2 melanoma cells (2×105) injected intravenously in C57B1/6 mice (6 animals/group). Peptides were intraperitoneally administered (250 μg i.p.) on days 1, 3, 5, 7, 9, 11 after tumor cell challenge. Lungs of peptide-treated animals are shown in FIG. 5 after 22 days of tumor challenge. As noticed, peptide treatment was interrupted 10 days before animal sacrifice.
In vivo protection by peptides RB9 and RB10 (and A4H3 control) against lung colonization by B16F10-Nex2 melanoma cells (2×105) injected intravenously in C57B1/6 mice (6 animals/group) is shown in FIG. 6. The other 5 CDRs of RebMab200 (SEQ ID NOs: 7, 10, 11, 12, 13) were unprotective in vivo. Peptides were administered in the same way as described above, and the number of lung nodules was determined.

The test system of another data set is tumor cells. The data set is described as follows: Cell adherence assay (detachment with trypsin/EDTA). Type of data set: cell-based. As to conditions: for adherence at peptide concentration of 1 mM (not suspended by trypsin/EDTA): 1 mM peptide; for adherence of tumor cells to the substrate: 96-well plates, RPMI 10% FCS, seen in B16F10-Nex2.1, U87MG, A5028 melanoma, SKBR3, SiHa, HCT cells. On the procedure: At a lower dose, cells would be detached with trypsin/EDTA at rates inversely proportional to the peptide concentration. Conceivably, peptides RB9 and RB10 affected the cytoskeleton dynamics of cells, thus signaling increased cell adhesion.
B16F10-Nex2.1 cells (5×10^3) and U87-MG cells (1×10^4) were cultivated in 96-well plates and incubated with different concentrations of RB9 (SEQ ID NO: 8) and RB10 (SEQ ID NO: 9) from 0.01 to 1 mM (i.e., 0.01, 0.05, 0.1, 0.25, 0.7, 0.8 and 1 mM of RB9 and RB10 for B16F10-Nex 2.1 cells; and 0.25, 0.5, 0.75 and 1 mM of RB9 and RB10 for U87-MG cells). After 18 hours incubation, viable cells detached with trypsin/EDTA were counted using Trypan blue exclusion staining. All assays were performed in triplicate in two independent experiments.
SKBR3 cells (1×10^4) were cultivated in 96-well plates and incubated with RB9 (SEQ ID NO: 8) and RB10 (SEQ ID NO: 9). After 18 hours incubation, viable cells detached with trypsin/EDTA were counted using Trypan blue exclusion staining. Assays were performed in triplicate in two independent experiments. The A2058 human melanoma cells (1×10^4) were incubated for 4 hours at 37° C. in a humidified chamber with 5% CO2. Fresh media containing different peptide concentrations of RB9 and RB10 ranging from 0 to 1 mM (i.e., 0, 0.25, 0.5 and 1 mM) was added to the wells and incubated for 24 hours. The media was then aspirated, cells were detached with 30 μl/well of trypsin-EDTA for five minutes at 37° C. and viable cells were counted in a Neubauer chamber using Trypan blue. As shown in FIGS. 2A-2D, 50% of cells were trypsin-EDTA resistant at 630 and 610 μM RB9 and RB10, respectively.

The subject of data set [2] is B16F10-Nex2 melanoma cells. Kind of data set: Cell migration, wound healing assay. Type of data set: cell-based, murine. The conditions noted are these: for inhibition of cell migration (words): peptide 500 μM, 24 hours after wounding. How it is done:
For the migration studies, 5×10^5 or 10^6 cells were distributed on 6-well plates and let them to adhere for 2 hours at 37° C./5% CO2. The culture medium was changed and the peptide was added at 500 μM overnight. The cell monolayer was “wounded” with a P1000 tip and incubated for 24 hours. Images of untreated cells (control) and peptide treated cells were captured with a JENOPTIK camera. Cell numbers (nuclei) were determined using the Pixcavator software version 5.0.
Viable B16F10-Nex2 cells (5×105)/well were distributed on a 6-well culture plate and incubated overnight at 37° C. in a humidified chamber with 5% CO2. A P1000 tip was used for wounding the cell monolayer and the image was immediately captured (0 hour) using a camera (Jenoptik) with the software Progres 2.8. After 24 hours a new image of the same field was obtained and recorded (24 hours).
Viable B16F10-Nex2 cells (3×10^5)/well were distributed in a 12-well culture plate and incubated for 4 hours at 37° C. in a humidified chamber with 5% CO2. Fresh medium containing RB10 (SEQ ID NO: 9) at different concentrations was added to the wells and incubated again for 4 hours. The monolayer wounding was performed as described above in Example 12, and images obtained accordingly. After 24 hours a new image in the same field was obtained and recorded (24 hours). […] Magnification ×100.

“Also recorded” adds a separate entry of the source. No end group written: not given here.

Regarding “CARGETARATFAYWGQG-NH2 [RB10, CARGETARATFAYWGQG-NH2]”, in the data set with HCT cells, the “cells resistant to trypsinization” value is listed as 80%. Moreover, in the data set on OVCAR-3 cells, the “cytotoxicity / activity against OVCAR-3 cells” value was “inactive” and the “hyper-adherent effect (detachment with trypsin/EDTA)” value is reported as “normally detached”. Also, in data set [1], the “protection against lung colonization (lung nodules)” value is “successfully protected; also recorded: protective; also recorded: reduced”. Moreover, in the data set on tumor cells, the “adherence at peptide concentration of 1 mM (not suspended by trypsin/EDTA)” value is reported as “hyper-adherence” and the “adherence of tumor cells to the substrate” value is recorded as “dose dependent increase of adherence”. For the same molecule, in data set [2] (30 μM, 24 hours), the “inhibition of cell migration” value was “more than 30%”. In addition, the “inhibition of cell migration” value in data set [2] (500 μM, 24 hours) is 100%. In data set [2] (different concentrations, 24 hours), the “migration inhibition, dose dependence” value is “dose-dependent inhibition”. The “inhibition of cell migration (words)” value in data set [2] was “Total inhibition; also recorded: inhibited; also recorded: complete inhibition”.

With `C[C@@H]1NC(=O)[C@H](CCCNC(=N)N)NC(=O)[C@H](C)NC(=O)[C@H]([C@@H](C)O)NC(=O)[C@H](CCC(=O)O)NC(=O)CNC(=O)[C@H](CCCNC(=N)N)NC(=O)[C@H](C)NC(=O)[C@@H](N)CSSC[C@@H](C(N)=O)NC(=O)CNC(=O)[C@H](CCC(N)=O)NC(=O)CNC(=O)[C@H](Cc2c[nH]c3ccccc23)NC(=O)[C@H](Cc2ccc(O)cc2)NC(=O)[C@H](C)NC(=O)[C@H](Cc2ccccc2)NC(=O)[C@H]([C@@H](C)O)NC1=O` [RB9, CARGETARATFAYWGQGC-NH2], the “cells resistant to trypsinization” value in the data set with HCT cells worked out at 80%. Moreover, in the data set with OVCAR-3 cells, the “cytotoxicity / activity against OVCAR-3 cells” value was “inactive; also recorded: no significant decrease in viability; also recorded: lack of cytotoxicity” and the “hyper-adherent effect (detachment with trypsin/EDTA)” value was “normally detached; also recorded: most cells were unaffected”. Besides, in data set [1], the “protection against lung colonization (lung nodules)” value was “successfully protected; also recorded: reduced”. In addition, in the data set with tumor cells, the “adherence at peptide concentration of 1 mM (not suspended by trypsin/EDTA)” value is recorded as “hyper-adherence” and the “adherence of tumor cells to the substrate” value is on record as “dose dependent increase of adherence”. Besides, in data set [2], the “inhibition of cell migration (words)” value is on record as “Total inhibition; also recorded: complete inhibition”.
